Type in all cases: cell-based
The target of one assay is T1, S1P4 (Homo sapiens, UniProt O95977).
T1 sequence (O95977 1-384): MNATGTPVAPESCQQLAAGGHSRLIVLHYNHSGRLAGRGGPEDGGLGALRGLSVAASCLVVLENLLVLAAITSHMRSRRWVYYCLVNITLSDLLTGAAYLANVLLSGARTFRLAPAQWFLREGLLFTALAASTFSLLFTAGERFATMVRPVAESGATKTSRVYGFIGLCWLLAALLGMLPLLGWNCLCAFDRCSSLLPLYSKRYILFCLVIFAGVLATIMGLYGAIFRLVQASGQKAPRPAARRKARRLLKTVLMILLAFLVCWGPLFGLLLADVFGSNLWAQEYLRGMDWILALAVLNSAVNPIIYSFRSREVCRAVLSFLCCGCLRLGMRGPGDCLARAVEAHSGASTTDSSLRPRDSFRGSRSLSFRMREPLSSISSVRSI
As to the kind of experiment: Aequorin assay, agonist potency, S1P4. To be noted: agonist mode, aequorin luminescence. The procedure:
(§1) Agonistic activity was measured as described below.
(§2) 18 hours prior to the test, vials of frozen cells are quickly thawed in a 37° C. water bath, cells are recovered by centrifugation and resuspended in assay buffer (DMEM/HAM's F12 with HEPES, without phenol red+0.1% fatty acid-free BSA). Cells are gently agitated in suspension overnight at RT in presence of 5 μM of Coelenterazine h (Molecular Probes). On the day of the test, cells are diluted to their final working concentrations in assay buffer and agitated in suspension for 1 h at RT. Cells are then placed in the luminescence reader (Hamamatsu Functional Drug Screening System 6000, FDSS6000). During cells incubation, compounds are prepared in 100% DMSO, and subsequently diluted in assay buffer. Compounds are then dispensed in the assay plate (black, clear-bottom, 384-well plate). After binding of agonists to the human S1P receptor the intracellular calcium concentration increases and binding of calcium to the Aequorin/Coelenterazine complex leads to an oxidation reaction of coelenterazine, which results in the production of Aequorin, coelenteramide, CO2 and light (Dmax 469 nm). The luminescent response is dependent on the agonist concentration. For agonist testing, 30 μL of cell suspension are injected on 30 μL of test compound or reference agonist in the assay plate. The resulting emission of light is recorded for 90 seconds using the FDSS6000. Dose response curves with the reference compounds are performed before testing the compounds. S1P is the reference agonist and JTE-013 the reference antagonist for S1P2.
(§3) Luminescence data are integrated over the reading interval for agonist and antagonist modes. To standardize the emission of recorded light (determination of the “100% signal”) across plates and across different experiments, some of the wells contain 100 μM digitonin or a saturating concentration of ATP (20 μM). Plates also contain the reference agonist at a concentration equivalent to the EC80 obtained during the test validation and the EC100. Dose-response data from test compounds were analyzed with XLfit (IDBS) software using nonlinear regression applied to a sigmoidal dose-response model and the following equation: […]

For assay [1], the target named is T2, human EDG8 (S1PR5) receptor (Homo sapiens, UniProt Q9H228).
T2 construct: carries the transgenes human EDG8 (S1PR5) receptor (Acession number NP_110387.1); expressed in transfected cells; host or cells: CHO-A21-EDG8#12 (CHO clone co-expressing mitochondrial aequorin and chimaeric Gaqi5)
T2 sequence (Q9H228 whole entry): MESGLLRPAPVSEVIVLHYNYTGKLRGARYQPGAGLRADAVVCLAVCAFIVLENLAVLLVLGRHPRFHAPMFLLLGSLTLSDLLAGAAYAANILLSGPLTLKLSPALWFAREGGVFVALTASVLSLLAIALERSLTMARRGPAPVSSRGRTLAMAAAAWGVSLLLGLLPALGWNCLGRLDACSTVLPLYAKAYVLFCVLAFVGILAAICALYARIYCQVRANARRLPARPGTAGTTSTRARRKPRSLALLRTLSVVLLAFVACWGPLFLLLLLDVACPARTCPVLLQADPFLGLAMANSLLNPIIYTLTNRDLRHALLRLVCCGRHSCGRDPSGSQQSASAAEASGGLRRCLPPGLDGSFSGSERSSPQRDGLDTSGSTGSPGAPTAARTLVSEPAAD
As to the kind of experiment: Aequorin assay, agonist potency, CHO-A21-EDG8#12 cells. To be noted: agonist mode, aequorin luminescence; read-out: S1P5 EC50 range #. The procedure:
as §1
(§4) Cell clone CHO-A21-Edg1#17 carries the transgenes human EDG1 (S1PR1) receptor (Accession number NP_001391.2), mitochondrially targeted Aequorin (active part corresponds to accession number 1SL8_A) and chimaeric Gaqi5=Gaq modified with the 5 C-terminal amino-acids replaced with those of the Gai protein (DCGLF). CHO-A2-S1P3 Mix is a cell pool ectopically expressing human EDG3 (S1PR3) receptor (Accession number NP_005217.2) mitochondrially targeted Aequorin (active part has a sequence similar to accession number AY601106.1) and GNA16 (Accession number NP_002059.3). Cell clone CHO-A21-EDG8#12 carries the transgenes human EDG8 (S1PR5) receptor (Acession number NP_110387.1), mitochondrially expressed Aequorin (active part corresponds to accession number 1SL8_A) and chimaeric Gaqi5 (Gaq modified to present the 5 last amino-acids of the Gai protein “DCGLF”; see above). Cells are grown to mid-log phase in culture medium (HAM's F12, 10% FBS, 100 IU/mL penicillin, 100 μg/mL streptomycin, 250 μg/mL Zeocin, 400 μg/mL G418). 18 hours prior to frozen cells preparation, the medium is changed to remove the antibiotics.
as §2, §3

The target in assay [2] is T3, human EDG1 (S1PR1) receptor (Homo sapiens, UniProt P21453).
T3 construct: expressed in transfected cells; host or cells: CHO-A21-Edg1#17 (CHO clone co-expressing mitochondrial aequorin and chimaeric Gaqi5)
T3 sequence (P21453 whole entry): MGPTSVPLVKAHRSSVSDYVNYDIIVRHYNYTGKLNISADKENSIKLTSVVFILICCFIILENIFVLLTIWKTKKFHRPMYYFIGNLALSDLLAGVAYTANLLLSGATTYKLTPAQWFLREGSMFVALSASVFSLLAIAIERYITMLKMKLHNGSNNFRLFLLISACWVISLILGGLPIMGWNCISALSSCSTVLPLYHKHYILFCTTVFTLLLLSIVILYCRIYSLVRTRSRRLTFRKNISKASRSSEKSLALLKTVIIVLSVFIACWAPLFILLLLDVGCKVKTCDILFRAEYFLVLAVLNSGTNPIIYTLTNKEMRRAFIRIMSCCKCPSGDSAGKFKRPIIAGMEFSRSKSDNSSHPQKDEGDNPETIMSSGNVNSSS
As to the kind of experiment: Aequorin assay, agonist potency, CHO-A21-Edg1#17 cells. To be noted: agonist mode, aequorin luminescence; read-out: S1P1 EC50. The procedure: as §1, §4, §2, §3

A value given as a limit tells only on which side of the number the result lay.

The source of these data is US20200055817A1 (AbbVie Deutschland GmbH & Co. KG, priority 2016, published 2020).

The EC50 is the concentration needed to bring the measured effect to its halfway point. For `O=C(O)C1(CN2CC3(Cc4ccc(OCc5c(F)cccc5C5CC5)cc4C3)C2)CC1` [Example 131, 1-((5′-((2-cyclopropyl-6-fluorobenzyl)oxy)-1′,3′-dihydrospiro[azetidine-3,2′-inden]-1-yl)methyl)cyclopropanecarboxylic acid], the EC50 at S1P4 was below 1000 nM; in assay [1], at most 10 nM; in assay [2] it was above 1000 nM.
Consider `CCc1cccc(F)c1COc1ccc2c(c1)CC1(C2)CN(CC(C)CC(=O)O)C1` (stereo not shown) [Example 65, 4-(5′-((2-ethyl-6-fluorobenzyl)oxy)-1′,3′-dihydrospiro[azetidine-3,2′-inden]-1-yl)-3-methylbutanoic acid], for which the values for the EC50 (at S1P4; in assay [1]; in assay [2]) were below 1000 nM, 10 to 100 nM and above 1000 nM, respectively.
For `COc1ccc(C#Cc2ccc3c(c2)CC2(C3)CN(CC3(C(=O)O)CC3)C2)c(C)c1` [Example 118, 1-((5′-((4-methoxy-2-methylphenyl)ethynyl)-1′,3′-dihydrospiro[azetidine-3,2′-inden]-1-yl)methyl)cyclopropanecarboxylic acid] the same measures were below 1000 nM, 1000 to 10000 nM and above 1000 nM.
With `O=C(O)C1CC(N2CC3(Cc4ccc(OCCc5ccccc5C(F)(F)F)cc4C3)C2)C1` (stereo not shown) [Example 105, 3-(5′-(2-(trifluoromethyl)phenethoxy)-1′,3′-dihydrospiro[azetidine-3,2′-inden]-1-yl)cyclobutanecarboxylic acid], the EC50 is below 1000 nM at S1P4, 1000 to 10000 nM in assay [1] and above 1000 nM in assay [2].
As to `O=C(O)C1(CN2CC3(Cc4ccc(OCCC5CCCCC5)cc4C3)C2)CC1` [Example 132, 1-((5′-(2-cyclohexylethoxy)-1′,3′-dihydrospiro[azetidine-3,2′-inden]-1-yl)methyl)cyclopropanecarboxylic acid], the results for the concentration for a half-maximal effect (EC50) (at S1P4; in assay [1]; in assay [2]) were below 1000 nM, 1000 to 10000 nM and above 1000 nM, respectively.
Consider `COc1ccc(COc2ccc3c(c2)CC2(C3)CN(CC3(C(=O)O)CC3)C2)cc1` [Example 139, 1-((5′-((4-methoxybenzyl)oxy)-1′,3′-dihydrospiro[azetidine-3,2′-inden]-1-yl)methyl)cyclopropanecarboxylic acid], for which the 50% effective concentration (EC50) is above 1000 nM on S1P4, 1000 to 10000 nM in assay [1] and above 1000 nM in assay [2].
As to `CC1CCC(C#Cc2ccc3c(c2)CC2(C3)CN(C3CC(C(=O)O)C3)C2)CC1` (stereo not shown) [Example 102, 3-(5′-((4-methylcyclohexyl)ethynyl)-1′,3′-dihydrospiro[azetidine-3,2′-inden]-1-yl)cyclobutanecarboxylic acid], the concentration giving a half-maximal response (EC50) on S1P4 was below 1000 nM; in assay [1], at most 10 nM; in assay [2], above 1000 nM.
On the same counts, the results for `CCCc1ccc(COc2ccc3c(c2)CC2(C3)CN(CC3(C(=O)O)CC3)C2)c(OC)c1` [Example 2, 1-((5′-((2-methoxy-4-propylbenzyl)oxy)-1′,3′-dihydrospiro[azetidine-3,2′-inden]-1-yl)methyl)cyclopropanecarboxylic acid] are below 1000 nM, 1000 to 10000 nM and above 1000 nM.
For the molecule `O=C(O)C1(CN2CC3(Cc4ccc(OCc5c(F)cccc5F)cc4C3)C2)CC1` [Example 37, 1-((5′-((2,6-difluorobenzyl)oxy)-1′,3′-dihydrospiro[azetidine-3,2′-inden]-1-yl)methyl)cyclopropanecarboxylic acid compound with 2,2,2-trifluoroacetic acid (1:1)], the concentration giving a half-maximal response (EC50) on S1P4 is below 1000 nM; in assay [1], 1000 to 10000 nM; in assay [2] it was above 1000 nM.
On the same counts, the results for `O=C(O)C1(CN2CC3(Cc4ccc(OCCc5c[nH]c6ccccc56)cc4C3)C2)CC1` [Example 144, 1-((5′-(2-(1H-indol-3-yl)ethoxy)-1′,3′-dihydrospiro[azetidine-3,2′-inden]-1-yl)methyl)cyclopropanecarboxylic acid] are above 1000 nM, 1000 to 10000 nM and above 1000 nM.
For the molecule `O=C(O)CN1CC2(Cc3ccc(OCCOc4ccc(Cl)cc4)cc3C2)C1` [Example 71, 2-(5′-(2-(4-chlorophenoxy)ethoxy)-1′,3′-dihydrospiro[azetidine-3,2′-inden]-1-yl)acetic acid], the values for the EC50 (at S1P4; in assay [1]; in assay [2]) were above 1000 nM, 1000 to 10000 nM and above 1000 nM, respectively.
Regarding `COc1cccc(Cl)c1COc1ccc2c(c1)CC1(C2)CN(CC2(C(=O)O)CC2)C1` [Example 31, 1-((5′-((2-chloro-6-methoxybenzyl)oxy)-1′,3′-dihydrospiro[azetidine-3,2′-inden]-1-yl)methyl)cyclopropanecarboxylic acid compound with 2,2,2-trifluoroacetic acid (1:1)], the EC50 on S1P4 is below 1000 nM; in assay [1] it was 100 to 1000 nM; in assay [2], above 1000 nM.
On to `O=C(O)CN1CC2(Cc3ccc(OCCc4ccccc4)cc3C2)C1` [Example 60, 2-(5′-phenethoxy-1′,3′-dihydrospiro[azetidine-3,2′-inden]-1-yl)acetic acid], for which the concentration giving a half-maximal response (EC50) on S1P4 is above 1000 nM; in assay [1], 1000 to 10000 nM; in assay [2] it was above 1000 nM.
For the molecule `O=C(O)[C@H]1C[C@@H](N2CC3(Cc4ccc(OCc5cc(Cl)ccc5Cl)cc4C3)C2)C1` [Example 90, (1s,3s)-3-(5′-((2,5-dichlorobenzyl)oxy)-1′,3′-dihydrospiro[azetidine-3,2′-inden]-1-yl)cyclobutanecarboxylic acid], the EC50 was below 1000 nM on S1P4, 100 to 1000 nM in assay [1] and above 1000 nM in assay [2].
On to `O=C(O)C1(CN2CC3(Cc4ccc(OC5Cc6ccccc6C5)cc4C3)C2)CC1` [Example 127, 1-((5′-((2,3-dihydro-1H-inden-2-yl)oxy)-1′,3′-dihydrospiro[azetidine-3,2′-inden]-1-yl)methyl)cyclopropanecarboxylic acid], for which the half-maximal effective concentration (EC50) at S1P4 was below 1000 nM; in assay [1] it was 1000 to 10000 nM; in assay [2], above 1000 nM.
On the same counts, the results for `COc1cccc(F)c1COc1ccc2c(c1)CC1(C2)CN(CC2(C(=O)O)CC2)C1` [Example 30, 1-((5′-((2-fluoro-6-methoxybenzyl)oxy)-1′,3′-dihydrospiro[azetidine-3,2′-inden]-1-yl)methyl)cyclopropanecarboxylic acid compound with 2,2,2-trifluoroacetic acid (1:1)] are above 1000 nM, 1000 to 10000 nM and above 1000 nM.
For the molecule `CCCCc1ccc(COc2ccc3c(c2)CC2(C3)CN(CC(=O)O)C2)c(Cl)c1` [Example 3, 2-(5′-((4-butyl-2-chlorobenzyl)oxy)-1′,3′-dihydrospiro[azetidine-3,2′-inden]-1-yl)acetic acid], the concentration giving a half-maximal response (EC50) on S1P4 was below 1000 nM; in assay [1], 1000 to 10000 nM; in assay [2], above 1000 nM.
For the molecule `CCOc1ccc(C#Cc2ccc3c(c2)CC2(C3)CN(CC3(C(=O)O)CC3)C2)cc1` [Example 1, 1-((5′-((4-ethoxyphenyl)ethynyl)-1′,3′-dihydrospiro[azetidine-3,2′-inden]-1-yl)methyl)cyclopropanecarboxylic acid compound with 2,2,2-trifluoroacetic acid (1:1)], the EC50 in assay [1] lay within 1000 to 10000 nM.
